Test results: patent US10501473B2, “Fused heterocyclic ring compounds and method of treating retinal disease using same” (THE INDUSTRY & ACADEMIC COOPERATION IN CHUNGNAM NATIONAL …, priority 2014, dated 2019)
“And” between values parts separate entries of the source, which are not always exact repeats. Equal entries are not always repeated.

What was measured:
[1] = tested on: RGC-5 (rat ganglion cell); experiment: Retinal nerve protection under oxygen-glucose deprivation (OGD), LDH assay; type: cell-based; settings: RGC-5, OGD 15 hours, compound 20 μM, DMSO control = 100%
How it was run: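 RGC-5 cells switched to glucose-free DMEM with compound (20 μM) or 0.1% DMSO and held 15 h at 37° C under anaerobic gas (10% H2, 5% CO2, 85% N2). Cell death from released LDH (formazan, 490 nm), scaled with OGD control as 100% and normal-medium cells as 0%; triplicate wells, experiments in triplicate.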

[2] = tested on: dry macular degeneration rat model; experiment: Retinal cell protection by instillation, sodium iodate rat model, H&E staining; type: in vivo; settings: SI ip 50 mg/kg, eye drops 50 μl twice a day, FIG. 2
Description: From 3 days before the administration of sodium iodate (SI) to the 8-week-old dry macular degeneration rat model, the compound of the invention was instillated twice a day (50 μl/each eye drop instillation) and SI (ip, 50 mg/kg) was administered once. Additionally, the compound was instillated twice a day for 7 days. 7 days later, the eyeballs were extracted, followed by H&E staining to investigate retinal cell protection effect (n=3, 6 eyes). FIG. 1 is a schematic diagram illustrating the construction of the dry macular degeneration rat model and the eye drop instillation of the compounds of the invention.
The eyeballs were extracted from the dry macular degeneration rat model constructed by the same manner as described in FIG. 1, followed by histostaining.
To measure the survival rate (%) of retinal pigment epithelial cells, the eyeballs extracted from the experimental rats were fixed in 4% glutaraldehyde solution for 4 hours and embedded in paraffin. Tissue sections were prepared in 5 μm thickness, followed by H&E (Hematoxylin and Eosin) staining. Photomicrographs were taken of 2-3 different areas within the RPE (retinal pigment epithelium) layer on 100× optical microscope (Leica), and the number of stained cells was counted. The number of RPE cells in the normal rat group was regarded as 100%, based on which the survival rate was calculated.

[3] = biological target: T1, RIPK1 (receptor-interacting serine/threonine-protein kinase 1) (Homo sapiens (Human), UniProt Q13546); experiment: IC50 to RIPK1, immuno-precipitated enzyme with [32P]γ-ATP; type: biochemical; settings: 10-0.05 μM, 100 μM ATP
T1 sequence (Q13546 whole entry, species assumed): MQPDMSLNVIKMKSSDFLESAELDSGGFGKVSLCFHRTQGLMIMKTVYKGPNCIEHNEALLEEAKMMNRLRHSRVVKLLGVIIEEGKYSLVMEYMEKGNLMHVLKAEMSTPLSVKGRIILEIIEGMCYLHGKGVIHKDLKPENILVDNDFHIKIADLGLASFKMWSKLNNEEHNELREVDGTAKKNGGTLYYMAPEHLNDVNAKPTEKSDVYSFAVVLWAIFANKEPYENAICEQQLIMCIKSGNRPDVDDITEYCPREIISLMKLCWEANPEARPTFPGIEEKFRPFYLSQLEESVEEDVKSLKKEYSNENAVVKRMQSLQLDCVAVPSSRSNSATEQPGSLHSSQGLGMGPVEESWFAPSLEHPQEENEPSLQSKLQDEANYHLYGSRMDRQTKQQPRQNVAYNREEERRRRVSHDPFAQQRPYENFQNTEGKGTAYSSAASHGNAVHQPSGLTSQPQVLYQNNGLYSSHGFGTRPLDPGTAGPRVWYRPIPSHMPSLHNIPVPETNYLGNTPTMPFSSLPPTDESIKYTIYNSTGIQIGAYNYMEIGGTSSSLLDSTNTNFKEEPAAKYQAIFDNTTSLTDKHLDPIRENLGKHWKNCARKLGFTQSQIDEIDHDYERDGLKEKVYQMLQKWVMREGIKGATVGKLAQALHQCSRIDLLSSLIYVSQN
Description: RIPK1 enzyme immuno-precipitated in HEK293 (Human Embryonic Kidney 293) cell lysate was used as a kinase. The experiment was performed according to the method described in Cell. 12; 137(6):1112-23(2009).
RIPK1 protein was over-expressed in HEK293 cell line, to which lysis buffer (50 mM Tris-Cl [pH 8.0], 150 mM NaCl, 1 mM EDTA, 1% NP-40, 0.4 mM phenylmethylsulfonyl fluoride (PMSF)) was added for cell lysis. Centrifugation was performed at 13,000 rpm for 10 minutes to separate the supernatant. RIPK1 monoclonal antibody (610459, BD Bioscience) and A/G agarose beads (sc-2003, Santa Cruz Biotechnology) were added thereto, followed by immuno-precipitation in a 4° C. rotator for 12 hours.
The compounds of examples of the invention were diluted at the different concentrations of 10 μM˜0.05 μM (10, 5, 1, 0.5, 0.1, 0.05 uM) and mixed with the immuno-precipitated RIPK1 enzyme, followed by reaction in a 24° C. constant-temperature water bath for 15 minutes. Additional reaction was induced for 30 minutes at 30° C. after 100 μM of ATP and 10 μCi[^32P] γ-ATP were added thereto. The reaction mixture was washed with buffer once, to which protein loading buffer was added, followed by heating at 100° C. for 3 minutes. The reaction mixture was then loaded on 8% SDS-PAGE gel. Radioactive image of the phosphorylated RIPK1 was detected with FLA-7000 (GE healthcare). The image Quant TL program was used for the quantification. Based on the results, IC50 of the compound was calculated by using sigmaplot 10.0 program.

retina of rats = settings: retinal detachment; cited from earlier work
[4] = biological target: T1, RIPK1 (receptor-interacting serine/threonine-protein kinase 1); experiment: RIPK1 inhibitory activity, autophosphorylation of immuno-precipitated RIPK1 with [32P]γ-ATP; type: biochemical; settings: compound 100 μM; remaining RIPK1 phosphorylation
How it was run: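 RIPK1 overexpressed in HEK293, immunoprecipitated, preincubated with compound 15 min at 24 °C in HEPES pH 7.6 kinase buffer with Mg2+/Mn2+. Autophosphorylation run 30 min at 30 °C with 100 μM ATP plus [32P]γ-ATP, resolved by SDS-PAGE and quantified by phosphorimaging.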

[5] = tested on: RGC-5 (rat ganglion cell-5); experiment: Retinal neuron protection under necroptosis inducing (TCZ; TNFα+cycloheximide+zVAD) condition, LDH assay; type: cell-based; settings: RGC-5, TCZ 15 hours, compound 20 μM, DMSO control = 100%
Description: The following experiment was performed to evaluate the retinal neuron protection effect of the compounds of the invention under necroptosis inducing condition.
The retinal ganglion cell line RGC-5 (rat ganglion cell-5) was cultured in DMEM (Dulbecco's modified Eagle's medium) supplemented with 10% FBS (fetal bovine serum) and 1% penicillin/streptomycin. The cells were distributed in a 96-well plate at the density of 8×10^3 cells/well, followed by culture in a 37° C., CO2 incubator for 12 hours. The medium supplemented with TNFα (10 ng/ml), cycloheximide (10 μg/ml), and zVAD (10 μM) (TCZ) was treated with DMSO (0.1%) alone (control) or with the compounds of the invention (20 μM), followed by additional culture in a 37° C., CO2 incubator for 15 hours to induce cell death.
The level of cell death was measured by LDH (lactate dehydrogenase, Roche) assay. The level of the control LDH under TCZ condition was regarded as 100%, and the level of LDH in the cell group cultured in normal medium (10% FBS, DMEM) for the same time was used for the measurement of the relative rate of cell death. The compounds of examples of the invention were treated to wells, each compound for three wells, and then each experiment was performed in triplicate.

[6] = Solubility in water of doxycycline forms; type: physicochemical
[7] = tested on: retinal degeneration rabbit model; experiment: Drug efficacy by ERG (electroretinography) 1; type: in vivo; settings: for response compared to normal (100%) / Drug efficacy (%): ERG; for Wave ratio / Drug efficacy (%): SI model; for Wave ratio: ERG wave A after one week, eye drops 100 μl twice a day, Comparative Example 3 oral 10 mg/rabbit once a day, Normal = 1.00
Description: The normal rabbit was anesthetized, which was adapted for 20 minutes in a dark room. Retinal potential difference was measured by ERG equipment. Electroretinography is a method to observe the response of photoreceptor cells with two light intensities. Particularly, A and B waves were measured from 100 to 10000 mcd, and the retinal potential difference measured at 3000 mcd. Drug efficacy was evaluated by observing the photoreceptor cells, for which the stronger response to wave A was selected.
Evaluation of candidate substances for dry macular degeneration was performed using a retinal degeneration rabbit model. The compounds of Comparative Examples 2 and 3 were used as comparative compounds. […] The compound of Comparative Example 3 was orally administered once a day (10 mg/rabbit, dissolved in saline).

[8] = tested on: dry macular degeneration rabbit model; experiment: Protection against retinal layer thickness reduction by instillation 2 (ONL thickness); type: in vivo; settings: FIG. 8
Description: The eyeballs were extracted from the dry macular degeneration rabbit model used in Experimental Example 7, and the thickness of ONL was measured.

[9] = tested on: dry macular degeneration pig model; experiment: Drug efficacy by fundoscopy; type: in vivo; settings: IAA 10 mg/kg iv, 7 days after induction, FIG. 13
Description: First, to construct a dry macular degeneration pig model, 10 mg/kg of iodoacetic acid (IAA) was dissolved in PBS (phosphate buffered saline) and injected intravenously to a mini pig (Yutacan Micropig). One week after the IAA administration, retinal degeneration was confirmed by retinal fundus photography and fluorescence (Experimental eye research 2012. 97, 137-147), and a schematic diagram illustrating the eye drop instillation of the compounds is shown in FIG. 12.
The eye drop instillation of the compounds of the invention was performed from a day before the IAA administration as shown in FIG. 12. 7 days after the induction of retinal degeneration in the pig, retinal fundus photographs were taken and the results are shown in FIG. 13.

[10] = tested on: dry macular degeneration pig model; experiment: Drug efficacy by ERG (electroretinography) 2; type: in vivo
Description: The experiment was performed by the same manner as described in Experimental Example 10 except that a dry macular degeneration pig model was used instead of the dry macular degeneration rabbit model.

| SMILES | IC50 [3] [nM] | activity at 100 µM [4] [%] | Death of retinal nerve cell (%) [1] | retina degeneration by histostaining [2] | Death of retinal nerve cell (%) [5] [%] | further results |
| --- | --- | --- | --- | --- | --- | --- |
| CN1C(=O)C(Cc2c[nH]c3ccccc23)NC1=S (stereo not shown) [Comparative Example 1, 5-((1H-indole-3-yl)methyl)-3-methyl-2-thioxothioxoimidazolidine-4-one, reference compound] | 95.5 |  | 89.5% and 89.5 ± 10.5% | retina degeneration was not observed |  | phosphorylation of RIPK1 in the retina (retina of rats): phosphorylation was reduced; photoreceptor degeneration (retina of rats): photoreceptor degeneration was also protected |
| CN1C(=O)NC(Cc2c[nH]c3c(Cl)cccc23)C1=O (stereo not shown) [Comparative Example 2, 5-((7-chloro-1H-indole-3-yl)methyl)-3-methylimidazolidine-2,4-dione, reference compound] |  |  | 73.5% and 73.5 ± 10.3% | retina degeneration was not observed |  |  |
| C[C@H]1c2cccc(O)c2C(=O)C2=C(O)[C@]3(O)C(=O)C(C(N)=O)=C(O)[C@@H](N(C)C)[C@@H]3[C@@H](O)[C@@H]21 [Comparative Example3-MH, doxycycline] |  |  |  |  |  | solubility in water ([6]; listed as MH): not dissolved in water; response compared to normal (100%) ([7]; FIG. 11, listed as 3-MH): 74.1%; response compared to normal (100%) ([7]; FIG. 11, listed as Comparative Example 3-MH): 74.1%; Wave ratio [7]: 0.74; Drug efficacy (%) ([7]; Normal = 100, Veh. = 0): 46% |
| O=C(c1cc2c(-c3ccc(F)cc3)ccnc2s1)N1CCOCC1 [Example 4, (4-(4-fluorophenyl)thieno[2,3-b]pyridine-2-yl)(morpholino)methanone] | 1120 | 3 ± 1.4 | 57.8 ± 8.9% |  |  |  |
| O=C(c1cc2c(-c3ccc(F)cc3)cccc2s1)N1CCOCC1 [Example 39, (4-(4-fluorophenyl)benzo[b]thiophene-2-yl)(morpholino)methanone] | 193 | 3.7 ± 2.6 | 46.2 ± 0.8% | retina degeneration was not observed | 74.9 ± 9.1 | retinal layer thickness protection effect [8]: 70˜80% and 70-80% |
| C[C@H]1c2cccc(O)c2C(=O)C2=C(O)[C@]3(O)C(=O)C(C(N)=O)=C(O)[C@@H](N(C)C)[C@@H]3[C@@H](O)[C@@H]21 [Comparative Example3-HC, doxycycline] |  |  |  |  |  | solubility in water ([6]; listed as HC): well dissolved in water; retinal fundus photographs [9]: damaged areas (*) were observed; wave A response ([10]; ERG, FIG. 14 and 15): wave A response was reduced; Wave ratio ([10]; IAA model, ERG wave A, Normal = 1.00): 0.38; Drug efficacy (%) ([10]; IAA model, ERG, Normal = 100, Veh. = 0): 18%; response compared to normal (100%) ([7]; FIG. 11, listed as 3-HC): 66.9%; response compared to normal (100%) ([7]; FIG. 11, listed as Comparative Example 3-HC): 66.9%; Wave ratio [7]: 0.67; Drug efficacy (%) ([7]; Normal = 100, Veh. = 0): 31%; Drug efficacy (%) ([7]; Normal = 100, Veh. = 0, listed as Comparative Example 3 (HC)): 31%; Drug efficacy (%) ([7]; Normal = 100, Veh. = 0, listed as Comparative Example 3-HC): 31% |

Further lines, with some results ahead:

| IC50 [3] [nM] | activity at 100 µM [4] [%] | SMILES | Death of retinal nerve cell (%) [1] | retina degeneration by histostaining [2] | Death of retinal nerve cell (%) [5] [%] | further results |
| --- | --- | --- | --- | --- | --- | --- |
| 8170 | 5.5 ± 4.9 | O=C(c1cc2c(-c3ccc(F)cc3)cccc2s1)N1CCCOCC1 [Example 52, (4-(4-fluorophenyl)benzo[b]thiophene-2-yl) (1,4-oxazepane-4-yl)methanone] | 52.8 ± 4.4% |  | 80.8 ± 2.8 |  |
| 217 | 2.5 ± 0.7 | O=C(c1cc2c(-c3ccc(F)cc3)cccc2s1)N1CCSCC1 [Example 51, (4-(4-fluorophenyl)benzo[b]thiophene-2-yl)(thiomorpholino)methanone] | 44.7 ± 6.3% |  |  |  |
| 360 | 3.5 ± 2.1 | O=C(c1cc2c(-c3ccc(F)cc3)cccc2s1)N1CCCC1 [Example 35, (4-(4-fluorophenyl)benzo[b]thiophene-2-yl)(pyrrolidine-1-yl)methanone] | 90.0 ± 3.3% |  | 89.2 ± 8.2 |  |
